target: Btk (Homo sapiens, UniProt Q06187); assay: Btk in vitro inhibitory activity, acellular kinase assay (TR-FRET); format: biochemical
Description: Btk kinase activity is determined using a time-resolved fluorescence resonance energy transfer (TR-FRET) methodology. Measurements are performed in a reaction volume of 50 μL using 96-well assay plates. Kinase enzyme, inhibitor, ATP (at the Km for the kinase), and 1 μM peptide substrate (Biotin-AVLESEEELYSSARQ-NH2) are incubated in a reaction buffer composed of 20 mM Tris, 50 mM NaCl, MgCl2 (5-25 mM depending on the kinase), MnCl2 (0-10 mM), 1 mM DTT, 0.1 mM EDTA, 0.01% bovine serum albumin, 0.005% Tween-20, and 10% DMSO at pH 7.4 for one hour. The reaction is quenched by the addition of 1.2 equivalents of EDTA (relative to divalent cation) in 25 μL of 1× Lance buffer (Perkin-Elmer). Streptavidin-APC (Perkin-Elmer) and Eu-labeled p-Tyr100 antibody (Perkin-Elmer) in 1× Lance buffer are added in a 25 μL volume to give final concentrations of 100 nM and 2.5 nM, respectively, and the mixture is allowed to incubate for one hour. The TR-FRET signal is measured on a multimode plate reader with an excitation wavelength (λEx) of 330 nm and detection wavelengths (λEm) of 615 and 665 nm. Activity is determined by the ratio of the fluorescence at 665 nm to that at 615 nm. For each compound, enzyme activity is measured at various concentrations of compound. Negative control reactions are performed in the absence of inhibitor in replicates of six, and two no-enzyme controls were used to determine baseline fluorescence levels. Inhibition constants, Ki(app), are obtained using the program BatchKi (Kuzmic et al. (2000), Anal. Biochem. 286:45-50). IC50s are obtained according to the equation: IC50={Ki(app)/(1+[ATP]/Km^ATP)}+[E]total/2;
For all kinases, [ATP]=Km^ATP, [Btk]total=0.5 nM and [Lck]total=6 nM.

Btk, sequence (Q06187 whole entry): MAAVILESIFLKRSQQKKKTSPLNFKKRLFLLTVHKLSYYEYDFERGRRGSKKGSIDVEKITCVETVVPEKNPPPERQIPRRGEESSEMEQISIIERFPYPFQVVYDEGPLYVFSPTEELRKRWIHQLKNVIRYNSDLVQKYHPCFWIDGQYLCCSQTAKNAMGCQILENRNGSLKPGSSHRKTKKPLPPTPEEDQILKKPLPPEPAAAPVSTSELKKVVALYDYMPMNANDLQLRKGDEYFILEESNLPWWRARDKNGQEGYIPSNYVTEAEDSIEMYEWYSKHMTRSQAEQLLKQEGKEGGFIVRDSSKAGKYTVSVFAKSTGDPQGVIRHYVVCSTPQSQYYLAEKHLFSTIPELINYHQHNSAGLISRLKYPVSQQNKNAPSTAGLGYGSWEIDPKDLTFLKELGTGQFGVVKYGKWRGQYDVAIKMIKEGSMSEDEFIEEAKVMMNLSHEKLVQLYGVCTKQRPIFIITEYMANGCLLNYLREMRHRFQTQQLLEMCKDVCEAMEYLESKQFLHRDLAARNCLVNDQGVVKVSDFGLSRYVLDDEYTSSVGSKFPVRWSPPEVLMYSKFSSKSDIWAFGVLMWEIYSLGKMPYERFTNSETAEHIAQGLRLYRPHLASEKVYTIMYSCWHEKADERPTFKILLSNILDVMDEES

| Structure (SMILES) | IC50 [nM] |
| --- | --- |
| CN(C/C=C/C(=O)N1CCC[C@@H](n2nc(-c3ccc(Oc4ccccc4)cc3)c3c(N)ncnc32)C1)[C@@H]1CCOC1 [Example 2h, (E)-1-((R)-3-(4-amino-3-(4-phenoxyphenyl)-1H-pyrazolo[3,4-d]pyrimidin-1-yl)piperidin-1-yl)-4-(methyl((R)-tetrahydrofuran-3-yl)amino)but-2-en-1-one] | < 100 |
| Nc1ncnc2c1c(-c1ccc(Oc3ccccc3)cc1)nn2[C@@H]1CCCN(C(=O)/C=C/CN[C@@H]2CCOC2)C1 [Example 2i, (E)-1-((R)-3-(4-amino-3-(4-phenoxyphenyl)-1H-pyrazolo[3,4-d]pyrimidin-1-yl)piperidin-1-yl)-4-((R)-tetrahydrofuran-3-ylamino)but-2-en-1-one] | < 100 |
| CN(C/C=C/C(=O)N1CCC[C@@H](n2nc(-c3ccc(Oc4ccccc4)cc3)c3c(N)ncnc32)C1)C1CCOCC1 [Example 1q, (R,E)-1-(3-(4-amino-3-(4-phenoxyphenyl)-1H-pyrazolo[3,4-d]pyrimidin-1-yl)piperidin-1-yl)-4-(methyl(tetrahydro-2H-pyran-4-yl)amino)but-2-en-1-one] | < 100 |
| CN(C/C=C/C(=O)N1CC[C@@H](n2nc(-c3ccc(Oc4cccc(F)c4)cc3)c3c(N)ncnc32)C1)C1CCC1 [Example 4b, (R,E)-1-(3-(4-amino-3-(4-(3-fluorophenoxy)phenyl)-1H-pyrazolo[3,4-d]pyrimidin-1-yl)pyrrolidin-1-yl)-4-(cyclobutyl(methyl)amino)but-2-en-1-one] | < 100 |
| CN(C/C=C/C(=O)N1CC[C@@H](n2cc(-c3ccc(Oc4ccccc4)cc3)c3c(N)ncnc32)C1)C1CC1 [Example 6b, (R,E)-1-(3-(4-amino-5-(4-phenoxyphenyl)-7H-pyrrolo[2,3-d]pyrimidin-7-yl)pyrrolidin-1-yl)-4-(cyclopropyl(methyl)amino)but-2-en-1-one] | < 100 |
| CN(C/C=C/C(=O)N1CC(n2nc(-c3ccc(Oc4ccccc4)cc3)c3c(N)ncnc32)C1)C1CC1 [Example 5c, (E)-1-(3-(4-amino-3-(4-phenoxyphenyl)-1H-pyrazolo[3,4-d]pyrimidin-1-yl)azetidin-1-yl)-4-(cyclopropyl(methyl)amino)but-2-en-1-one] | < 100 |
| CN(C(=O)/C=C/CN(C)C1CC1)c1cccc(-n2cc(-c3ccc(Oc4ccccc4)cc3)c3c(N)ncnc32)c1 [Example 8a] | < 100 |
| Nc1ncnc2c1c(-c1ccc(Oc3ccccc3)cc1)nn2[C@@H]1CCN(C(=O)/C=C/CNc2ccccn2)C1 [Example 1s, (R,E)-1-(3-(4-amino-3-(4-phenoxyphenyl)-1H-pyrazolo[3,4-d]pyrimidin-1-yl)pyrrolidin-1-yl)-4-(pyridin-2-ylamino)but-2-en-1-one] | < 100 |
| CC(C)N(C/C=C/C(=O)N1CC[C@@H](n2nc(-c3ccc(Oc4ccccc4)cc3)c3c(N)ncnc32)C1)C1CC1 [Example 2q, (R,E)-1-(3-(4-amino-3-(4-phenoxyphenyl)-1H-pyrazolo[3,4-d]pyrimidin-1-yl)pyrrolidin-1-yl)-4-(cyclopropyl(isopropyl)amino)but-2-en-1-one] | < 100 |
| CN(C/C=C/C(=O)N1CC[C@@H](n2nc(-c3ccc(Oc4ccccc4)cc3)c3c(N)ncnc32)C1)[C@@H]1CCOC1 [Example 2b, (E)-1-((R)-3-(4-amino-3-(4-phenoxyphenyl)-1H-pyrazolo[3,4-d]pyrimidin-1-yl)pyrrolidin-1-yl)-4-(methyl((R)-tetrahydrofuran-3-yl)amino)but-2-en-1-one] | < 100 |
| Nc1ncnc2c1c(-c1ccc(Oc3ccccc3)cc1)nn2[C@@H]1CCCN(C(=O)/C=C/CN(C2CC2)C2CC2)C1 [Example 2r, (R,E)-1-(3-(4-amino-3-(4-phenoxyphenyl)-1H-pyrazolo[3,4-d]pyrimidin-1-yl)piperidin-1-yl)-4-(dicyclopropylamino)but-2-en-1-one] | < 100 |
| COCCN(C/C=C/C(=O)N1CCC[C@@H](n2nc(-c3ccc(Oc4ccccc4)cc3)c3c(N)ncnc32)C1)C1CC1 [Example 2s, (R,E)-1-(3-(4-amino-3-(4-phenoxyphenyl)-1H-pyrazolo[3,4-d]pyrimidin-1-yl)piperidin-1-yl)-4-(cyclopropyl(2-methoxyethyl)amino)but-2-en-1-one] | < 100 |
| CN(C(=O)/C=C/CN(C)C1CC1)c1ccc(-n2nc(-c3ccc(Oc4ccccc4)cc3)c3c(N)ncnc32)cc1 [Example 7b, (E)-N-(4-(4-amino-3-(4-phenoxyphenyl)-1H-pyrazolo[3,4-d]pyrimidin-1-yl)phenyl)-4-(cyclopropyl(methyl)amino)-N-methylbut-2-enamide] | < 100 |
| CN1CCC(N(C)C/C=C/C(=O)N2CCC[C@@H](n3nc(-c4ccc(Oc5ccccc5)cc4)c4c(N)ncnc43)C2)CC1 [Example 2an, (R,E)-1-(3-(4-amino-3-(4-phenoxyphenyl)-1H-pyrazolo[3,4-d]pyrimidin-1-yl)piperidin-1-yl)-4-(methyl(1-methylpiperidin-4-yl)amino)but-2-en-1-one] | < 100 |
| COCCN(C/C=C/C(=O)N1CC[C@@H](n2nc(-c3ccc(Oc4ccccc4)cc3)c3c(N)ncnc32)C1)C1CC1 [Example 2p, (R,E)-1-(3-(4-amino-3-(4-phenoxyphenyl)-1H-pyrazolo[3,4-d]pyrimidin-1-yl)pyrrolidin-1-yl)-4-(cyclopropyl(2-methoxyethyl)amino)but-2-en-1-one] | < 100 |
| CN(C/C=C/C(=O)N1CC[C@@H](n2nc(-c3ccc(Oc4ccccc4)cc3)c3c(N)ncnc32)C1)C1COC1 [Example 2f, (R,E)-1-(3-(4-amino-3-(4-phenoxyphenyl)-1H-pyrazolo[3,4-d]pyrimidin-1-yl)pyrrolidin-1-yl)-4-(methyl(oxetan-3-yl)amino)but-2-en-1-one] | < 100 |
| Nc1ncnc2c1c(-c1ccc(Oc3ccccc3)cc1)nn2[C@@H]1CCCN(C(=O)/C=C/CNC2CCCC2)C1 [Example 2aj, (R,E)-1-(3-(4-amino-3-(4-phenoxyphenyl)-1H-pyrazolo[3,4-d]pyrimidin-1-yl)piperidin-1-yl)-4-(cyclopentylamino)but-2-en-1-one] | < 100 |
| CN(C(=O)/C=C/CN(C)C1CCC1)c1ccc(-n2nc(-c3ccc(Oc4ccccc4)cc3)c3c(N)ncnc32)cc1 [Example 7c, (E)-N-(4-(4-amino-3-(4-phenoxyphenyl)-1H-pyrazolo[3,4-d]pyrimidin-1-yl)phenyl)-4-(cyclobutyl(methyl)amino)-N-methylbut-2-enamide] | < 100 |
| CN(C/C=C/C(=O)N1CC[C@@H](n2nc(-c3ccc(Oc4ccccc4)cc3)c3c(N)ncnc32)C1)C1CCCCC1 [Example 2w, (R,E)-1-(3-(4-amino-3-(4-phenoxyphenyl)-1H-pyrazolo[3,4-d]pyrimidin-1-yl)pyrrolidin-1-yl)-4-(cyclohexyl(methyl)amino)but-2-en-1-one] | < 100 |
| Nc1ncnc2c1c(-c1ccc(Oc3ccccc3)cc1)nn2[C@@H]1CCN(C(=O)/C=C/CN[C@@H]2CCOC2)C1 [Example 2c, (E)-1-((R)-3-(4-amino-3-(4-phenoxyphenyl)-1H-pyrazolo[3,4-d]pyrimidin-1-yl)pyrrolidin-1-yl)-4-((R)-tetrahydrofuran-3-ylamino)but-2-en-1-one] | < 100 |
| CN(C/C=C/C(=O)N1CCC[C@@H](n2nc(-c3ccc(Oc4ccccc4)cc3)c3c(N)ncnc32)C1)C1CC1 [Example 2ae, (R,E)-1-(3-(4-amino-3-(4-phenoxyphenyl)-1H-pyrazolo[3,4-d]pyrimidin-1-yl)piperidin-1-yl)-4-(cyclopropyl(methyl)amino)but-2-en-1-one] | < 100 |
| CC(C)N(C/C=C/C(=O)N1CC[C@@H](n2nc(-c3ccc(Oc4ccccc4)cc3)c3c(N)ncnc32)C1)C1CCC1 [Example 2aq, (R,E)-1-(3-(4-amino-3-(4-phenoxyphenyl)-1H-pyrazolo[3,4-d]pyrimidin-1-yl)pyrrolidin-1-yl)-4-(cyclobutyl(isopropyl)amino)but-2-en-1-one] | < 100 |
| CN1CCC(N(C)C/C=C/C(=O)N2CC[C@@H](n3nc(-c4ccc(Oc5ccccc5)cc4)c4c(N)ncnc43)C2)CC1 [Example 2ac, (R,E)-1-(3-(4-amino-3-(4-phenoxyphenyl)-1H-pyrazolo[3,4-d]pyrimidin-1-yl)pyrrolidin-1-yl)-4-(methyl(1-methylpiperidin-4-yl)amino)but-2-en-1-one] | < 100 |
| CN(C(=O)/C=C/CN(C)C1CCC1)c1cccc(-n2nc(-c3ccc(Oc4ccccc4)cc3)c3c(N)ncnc32)c1 [Example 7e, (E)-N-(3-(4-amino-3-(4-phenoxyphenyl)-1H-pyrazolo[3,4-d]pyrimidin-1-yl)phenyl)-4-(cyclobutyl(methyl)amino)-N-methylbut-2-enamide] | < 100 |
| CN(C(=O)/C=C/CN(C)C1CC1)c1cccc(-n2nc(-c3ccc(Oc4ccccc4)cc3)c3c(N)ncnc32)c1 [Example 7d, (E)-N-(3-(4-amino-3-(4-phenoxyphenyl)-1H-pyrazolo[3,4-d]pyrimidin-1-yl)phenyl)-4-(cyclopropyl(methyl)amino)-N-methylbut-2-enamide] | < 100 |
